Each compound was assayed against human FXa (Homo sapiens, UniProt P00742) (assay: Determination of inhibitory activity of activated blood coagulation factor X (FXa)). Settings: substrate S-2765, Tris buffer pH 8.4, incubation 30 minutes, absorbance A405; read-out: FXa inhibitory activity, 50% inhibitory activity (IC50).
Format: biochemical
Protocol: A test substance was dissolved in water or water containing organic solvents (DMSO, ethanol or methanol) at a suitable concentration to provide a specimen. To 70 μl each of the resulting specimens serially diluted with water, were added 90 μl of a 100 mM Tris buffer (pH 8.4), 20 μl of a 50 mM Tris buffer (pH 8.4) containing 50 mU/ml human FXa and 2 mM of a substrate (S-2765 manufactured by Daiichi Pure Chemicals Co., Ltd.). Incubation was carried out for 30 minutes. To the incubated mixture, was then added 50 μl of a 50% acetic acid. The absorbance (A405) was determined. A mixture prepared by adding the Tris buffer instead of the FXa was used as a blank, and a mixture containing water instead of the specimen was used as a control. The 50% inhibitory activity (IC50) was determined as the indication of FXa inhibitory activity.

human FXa, sequence (P00742 235-488 limits assumed): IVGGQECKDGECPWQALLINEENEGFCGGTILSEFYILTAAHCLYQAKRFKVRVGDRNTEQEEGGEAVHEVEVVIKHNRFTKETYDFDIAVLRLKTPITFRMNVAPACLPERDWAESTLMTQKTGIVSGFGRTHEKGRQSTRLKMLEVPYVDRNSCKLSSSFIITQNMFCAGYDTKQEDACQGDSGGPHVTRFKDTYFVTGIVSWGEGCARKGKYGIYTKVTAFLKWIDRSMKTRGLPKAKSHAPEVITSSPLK
human FXa, sequence (P00742 41-179 partner limits assumed): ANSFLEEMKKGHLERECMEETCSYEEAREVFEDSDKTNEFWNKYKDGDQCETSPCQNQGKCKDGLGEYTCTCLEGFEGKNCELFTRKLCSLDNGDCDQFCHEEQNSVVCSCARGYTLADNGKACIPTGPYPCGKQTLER

Compound	IC50
COC(=O)c1cc(COCC2CCN(C(C)C)CC2)cc(-c2cccc(C(=N)N)c2)c1 [Reference Example 4, methyl 3-(3-amidinophenyl)-5-[(N-isopropyl-4-piperidinyl)methoxymethyl]-5-benzoate]	100 to 1000 nM
COC(=O)c1cc(COCC2CCN(C(C)=N)CC2)cc(-c2cccc(C(=N)N)c2)c1 [Reference Example 7, methyl 3-(3-amidinophenyl)-5-[(1-acetimidoyl-4-piperidinyl)methoxymethyl]benzoate]	10 to 100 nM
COC(=O)c1cc(CNCC2CCN(C(C)=N)CC2)cc(-c2cccc(C(=N)N)c2)c1 [Reference Example 6, methyl 3-(3-amidinophenyl)-5-[(((N-acetimidoylpiperidin-4-yl)methyl)amino)methyl]benzoate]	10 to 100 nM
COC(=O)c1cc(COCC2CCN(C(C)=O)CC2)cc(-c2cccc(C(=N)N)c2)c1 [Reference Example 5, methyl 3-(3-amidinophenyl)-5-[(N-acetylpiperidin-4-yl)methoxymethyl]-5-benzoate]	100 to 1000 nM
CC(C)N1CCC(COCc2cc(C(=O)O)cc(-c3cccc(C(=N)N)c3)c2)CC1	100 to 1000 nM
COC(=O)c1cc(COCC2CCNCC2)cc(-c2cccc(C(=N)N)c2)c1 [Reference Example 3, methyl 3-(3-amidinophenyl)-5-[(4-piperidinyl)methoxymethyl]-5-benzoate]	100 to 1000 nM
